Data reported in US12441722B2, “Therapeutic agents and methods of treatment” (University of Florida Research Foundation, Incorporated, priority 2020, dated 2025).
pEC50: −log10 of the molar value.

Test system: MOLT-4
Test: Cell viability assay (tetrazolium-based MTS) in MOLT4 cells
Details: 48 h incubation
Experimental: Cancer cells from acute lymphoblastic leukemia (MOLT4) were incubated with increasing concentrations of compounds of Examples 1-9 for 48 h. Cell viability was measured by tetrazolium-based MTS assay. 5×10^4 to 1×10^5 suspension cells or 3×10^3 to 5×10^3 adherent cells were seeded and treated in 96-well plates for 48 h. The EC50 values of individual agents were calculated with GraphPad Prism.

[1] = Homo sapiens, MOLT-4, MOLT4 acute lymphoblastic leukemia cells
[2] = MOLT4 acute lymphoblastic leukemia cells

Row | Compound | pEC50 [1] | pEC50 [2]
1 | Cc1ncsc1-c1ccc([C@H](C)NC(=O)[C@@H]2C[C@@H](O)CN2C(=O)[C@@H](NC(=O)CCCCCCCCS(=O)(=O)NC(=O)c2nc(N3CCc4cccc(C(=O)Nc5nc6ccccc6s5)c4C3)ccc2-c2cnn(CC34CC5CC(CC(C5)C3)C4)c2C)C(C)(C)C)cc1 [degrader #14, 2-(5-(1-(adamantan-1-ylmethyl)-5-methyl-1H-pyrazol-4-yl)-6-(((9-(((S)-1-((2S,4R)-4-hydroxy-2-(((S)-1-(4-(4-methylthiazol-5-yl)phenyl)ethyl)carbamoyl)pyrrolidin-1-yl)-3,3-dimethyl-1-oxobutan-2-yl)amino)-9-oxononyl)sulfonyl)carbamoyl)pyridin-2-yl)-N-(benzo[d]thiazol-2-yl)-1,2,3,4-tetrahydroisoquinoline-8-carboxamide] | > 8.00 | –
2 | Cc1c(-c2ccc(N3CCc4cccc(C(=O)Nc5nc6ccccc6s5)c4C3)nc2C(=O)NCCOCCOCCOCC#Cc2cccc3c2C(=O)N(C2CCC(=O)NC2=O)C3=O)cnn1CC12CC3CC(CC(C3)C1)C2 (stereo not drawn) [degrader #26, 2-(5-(1-(adamantan-1-ylmethyl)-5-methyl-1H-pyrazol-4-yl)-6-((2-(2-(2-((3-(2-(2,6-dioxopiperidin-3-yl)-1,3-dioxoisoindolin-4-yl)prop-2-yn-1-yl)oxy)ethoxy)ethoxy)ethyl)carbamoyl)pyridin-2-yl)-N-(benzo[d]thiazol-2-yl)-1,2,3,4-tetrahydroisocuinoline-8-carboxamide] | – | 7.00 to 8.00
3 | Cc1c(-c2ccc(N3CCc4cccc(C(=O)Nc5nc6ccccc6s5)c4C3)nc2C(=O)NCCCCNc2cccc3c2C(=O)N(C2CCC(=O)NC2=O)C3=O)cnn1CC12CC3CC(CC(C3)C1)C2 (stereo not drawn) [degrader #3, 2-(5-(1-(adamantan-1-ylmethyl)-5-methyl-1H-pyrazol-4-yl)-6-((4-((2-(2,6-dioxopiperidin-3-yl)-1,3-dioxoisoindolin-4-yl)amino)butyl)carbamoyl)pyridin-2-yl)-N-(benzo[d]thiazol-2-yl)-1,2,3,4-tetrahydroisoquinoline-8-carboxamide] | 6.00 to 7.00 | –
4 | Cc1c(-c2ccc(N3CCc4cccc(C(=O)Nc5nc6ccccc6s5)c4C3)nc2C(=O)O)cnn1CC12CC3CC(CC(C3)C1)C2 [A1331852, reference compound] | > 8.00 | –
5 | Cc1c(-c2ccc(N3CCc4cccc(C(=O)Nc5nc6ccccc6s5)c4C3)nc2C(=O)O)cnn1CC12CC3CC(C1)CC(C(=O)NCCOCCOCCOCCNc1cccc4c1C(=O)N(C1CCC(=O)NC1=O)C4=O)(C3)C2 (stereo not drawn) [degrader #40, 6-(8-(benzo[d]thiazol-2-ylcarbamoyl)-3,4-dihydroisoquinolin-2(1H)-yl)-3-(1-(((1r,3r)-3-((2-(2-(2-(2-((2-(2,6-dioxopiperidin-3-yl)-1,3-dioxoisoindolin-4-yl)amino)ethoxy)ethoxy)ethoxy)ethyl)carbamoyl)adamantan-1-yl)methyl)-5-methyl-1H-pyrazol-4-yl)picolinic acid] | – | 7.00 to 8.00
6 | Cc1c(-c2ccc(N3CCc4cccc(C(=O)Nc5nc6ccccc6s5)c4C3)nc2C(=O)NCCOCCOCCOCC#Cc2ccc3c(c2)C(=O)N(C2CCC(=O)NC2=O)C3=O)cnn1CC12CC3CC(CC(C3)C1)C2 (stereo not drawn) [degrader #27, 2-(5-(1-(adamantan-1-ylmethyl)-5-methyl-1H-pyrazol-4-yl)-6-((2-(2-(2-((3-(2-(2,6-dioxopiperidin-3-yl)-1,3-dioxoisoindolin-5-yl)prop-2-yn-1-yl)oxy)ethoxy)ethoxy)ethyl)carbamoyl)pyridin-2-yl)-N-(benzo[d]thiazol-2-yl)-1,2,3,4-tetrahydroisocuinoline-8-carboxamnide] | – | 7.00 to 8.00
7 | Cc1ncsc1-c1ccc([C@H](C)NC(=O)[C@@H]2C[C@@H](O)CN2C(=O)[C@@H](NC(=O)CCCCNC(=O)C23CC4CC(CC(Cn5ncc(-c6ccc(N7CCc8cccc(C(=O)Nc9nc%10ccccc%10s9)c8C7)nc6C(=O)O)c5C)(C4)C2)C3)C(C)(C)C)cc1 [degrader #42, 6-(8-(benzo[d]thiazol-2-ylcarbamoyl)-3,4-dihydroisoquinolin-2(1H)-yl)-3-(1-(((1S,3r)-3-((5-(((S)-1-((2S,4R)-4-hydroxy-2-(((S)-1-(4-(4-methylthiazol-5-yl)phenyl)ethyl)carbamoyl)pyrrolidin-1-yl)-3,3-dimethyl-1-oxobutan-2-yl)amino)-5-oxopentyl)carbamoyl)adamantan-1-yl)methyl)-5-methyl-1H-pyrazol-4-yl)picolinic acid] | – | < 6.00
8 | Cc1c(-c2ccc(N3CCc4cccc(C(=O)Nc5nc6ccccc6s5)c4C3)nc2C(=O)NCCOCCOCCNc2cccc3c2C(=O)N(C2CCC(=O)NC2=O)C3=O)cnn1CC12CC3CC(CC(C3)C1)C2 (stereo not drawn) [degrader #7, 2-(5-(1-(adamantan-1-ylmethyl)-5-methyl-1H-pyrazol-4-yl)-6-((2-(2-(2-((2-(2,6-dioxopiperidin-3-yl)-1,3-dioxoisoindolin-4-yl)amino)ethoxy)ethoxy)ethyl)carbamoyl)pyridin-2-yl)-N-(benzo[d]thiazol-2-yl)-1,2,3,4-tetrahydroisoquinoline-8-carboxamide] | 7.00 to 8.00 | –
9 | Cc1c(-c2ccc(N3CCc4cccc(C(=O)Nc5nc6ccccc6s5)c4C3)nc2C(=O)NCCOCCNc2cccc3c2C(=O)N(C2CCC(=O)NC2=O)C3=O)cnn1CC12CC3CC(CC(C3)C1)C2 (stereo not drawn) [degrader #6, 2-(5-(1-(adamantan-1-ylmethyl)-5-methyl-1H-pyrazol-4-yl)-6-((2-(2-((2-(2,6-dioxopiperidin-3-yl)-1,3-dioxoisoindolin-4-yl)amino)ethoxy)ethyl)carbamoyl)pyridin-2-yl)-N-(benzo[d]thiazol-2-yl)-1,2,3,4-tetrahydroisoquinoline-8-carboxamide] | 7.00 to 8.00 | –
10 | Cc1ncsc1-c1ccc([C@H](CC(=O)NCCCCCCNC(=O)c2nc(N3CCc4cccc(C(=O)Nc5nc6ccccc6s5)c4C3)ccc2-c2cnn(CC34CC5CC(CC(C5)C3)C4)c2C)NC(=O)[C@@H]2C[C@@H](O)CN2C(=O)[C@@H](NC(=O)C2(C#N)CC2)C(C)(C)C)cc1 [degrader #24, 2-(5-(1-(adamantan-1-ylmethyl)-5-methyl-1H-pyrazol-4-yl)-6-((6-((S)-3-((2S,4R)-1-((S)-2-(1-cyanocyclopropane-1-carboxamido)-3,3-dimethylbutanoyl)-4-hydroxypyrrolidine-2-carboxamido)-3-(4-(4-methylthiazol-5-yl)phenyl)propanamido)hexyl)carbamoyl)pyridin-2-yl)-N-(benzo[d]thiazol-2l)-1,2,3,4-tetrahydroisoquinoline-8-carboxamide] | – | 6.00 to 7.00
11 | Cc1c(-c2ccc(N3CCc4cccc(C(=O)Nc5nc6ccccc6s5)c4C3)nc2C(=O)NCCCCCCCCNc2cccc3c2C(=O)N(C2CCC(=O)NC2=O)C3=O)cnn1CC12CC3CC(CC(C3)C1)C2 (stereo not drawn) [degrader #5, 2-(5-(1-(adamantan-1-ylmethyl)-5-methyl-1H-pyrazol-4-yl)-6-((8-((2-(2,6-dioxopiperidin-3-yl)-1,3-dioxoisoindolin-4-yl)amino)octyl)carbamoyl)pyridin-2-yl)-N-(benzo[d]thiazol-2-yl)-1,2,3,4-tetrahydroisoquinoline-8-carboxamide] | 6.00 to 7.00 | –
12 | Cc1ncsc1-c1ccc([C@H](C)NC(=O)[C@@H]2C[C@@H](O)CN2C(=O)[C@@H](NC(=O)CCCCCCCCCS(=O)(=O)NC(=O)c2nc(N3CCc4cccc(C(=O)Nc5nc6ccccc6s5)c4C3)ccc2-c2cnn(CC34CC5CC(CC(C5)C3)C4)c2C)C(C)(C)C)cc1 [degrader #15, 2-(5-(1-(adamantan-1-ylmethyl)-5-methyl-1H-pyrazol-4-yl)-6-(((10-(((S)-1-((2S,4R)-4-hydroxy-2-(((S)-1-(4-(4-methylthiazol-5-yl)phenyl)ethyl)carbamoyl)pyrrolidin-1-yl)-3,3-dimethyl-1-oxobutan-2-yl)amino)-10-oxodecyl)sulfonyl)carbamoyl)pyridin-2-yl)-N-(benzo[d]thiazol-2-yl)-1,2,3,4-tetrahydroisoquinoline-8-carboxamide] | 7.00 to 8.00 | –
13 | Cc1c(-c2ccc(N3CCc4cccc(C(=O)Nc5nc6ccccc6s5)c4C3)nc2C(=O)NCCOCCOCCOCC#Cc2cccc3c2CN(C2CCC(=O)NC2=O)C3=O)cnn1CC12CC3CC(CC(C3)C1)C2 (stereo not drawn) [degrader #28, 2-(5-(1-(adamantan-1-ylmethyl)-5-methyl-1H-pyrazol-4-yl)-6-((2-(2-(2-((3-(2-(2,6-dioxopiperidin-3-yl)-1-oxoisoindolin-4-yl)prop-2-yn-1-yl)oxy)ethoxy)ethoxy)ethyl)carbamoyl)pyridin-2-yl)-N-(benzo[d]thiazol-2-yl)-1,2,3,4-tetrahydroisoguinoline-8-carboxamide] | – | > 8.00
14 | Cc1ncsc1-c1ccc([C@H](C)NC(=O)[C@@H]2C[C@@H](O)CN2C(=O)[C@@H](NC(=O)CCCCCCCS(=O)(=O)NC(=O)c2nc(N3CCc4cccc(C(=O)Nc5nc6ccccc6s5)c4C3)ccc2-c2cnn(CC34CC5CC(CC(C5)C3)C4)c2C)C(C)(C)C)cc1 [degrader #13, 2-(5-(1-(adamantan-1-ylmethyl)-5-methyl-1H-pyrazol-4-yl)-6-(((8-(((S)-1-((2S,4R)-4-hydroxy-2-(((S)-1-(4-(4-methylthiazol-5-yl)phenyl)ethyl)carbamoyl)pyrrolidin-1-yl)-3,3-dimethyl-1-oxobutan-2-yl)amino)-8-oxooctyl)sulfonyl)carbamoyl)pyridin-2-yl)-N-(benzo[d]thiazol-2-yl)-1,2,3,4-tetrahydroisoquinoline-8-carboxamide] | > 8.00 | –
15 | Cc1c(-c2ccc(N3CCc4cccc(C(=O)Nc5nc6ccccc6s5)c4C3)nc2C(=O)NCCOCCOCCOCC#Cc2ccc3c(c2)CN(C2CCC(=O)NC2=O)C3=O)cnn1CC12CC3CC(CC(C3)C1)C2 (stereo not drawn) [degrader #29, 2-(5-(1-(adamantan-1-ylmethyl)-5-methyl-1H-pyrazol-4-yl)-6-((2-(2-(2-((3-(2-(2,6-dioxopiperidin-3-yl)-1-oxoisoindolin-5-yl)prop-2-yn-1-yl)oxy)ethoxy)ethoxy)ethyl)carbamoyl)pyridin-2-yl)-N-(benzo[d]thiazol-2-yl)-1,2,3,4-tetrahydroisoguinoline-8-carboxamide] | – | > 8.00
